Laboratory results as given in PMC2706954, “Dissecting Structural and Functional Diversity of the Lantibiotic Mersacidin” (Chemistry & Biology, 2009).
“And” between values parts separate entries of the source, which are not always exact repeats. Identical values can stand only once.

Columns and labels:
S. pneumoniae BAA-255 = format: cell-based, Streptococcus pneumoniae; settings: two-fold serial dilutions in brain-heart-infusion broth with 50 μg/ml Ca2+; 18–20 hr at 37°C; MIC = lowest concentration preventing visible growth
Method: (§1) Antibacterial activity of fermentation samples or purified samples was determined by Mueller-Hinton Agar diffusion bioassays using M. luteus ATCC 4698 as the indicator strain. Susceptibility testing (minimum inhibitory concentration [MIC]) for all aerobic organisms, with the exception of S. pneumoniae, was performed following the recommendations of CLSI. Susceptibility testing of S. pneumoniae was performed by two-fold serial dilutions in brain-heart-infusion broth supplemented with 50 μg/ml Ca^2+. Vancomycin was used as a reference antibiotic, and plates were incubated aerobically, with shaking, for 18–20 hr at 37°C with the MIC defined as the lowest concentration of drug that prevented visible growth.

[1] = system: methicillin-resistant Staphylococcus aureus (MRSA); settings: administered subcutaneously; at concentrations comparable to vancomycin; ref Chatterjee et al., 1992b; cited from earlier work
Source text: (§2) Mersacidin has antibacterial activity against Gram-positive pathogens; like vancomycin, it binds to the peptidoglycan precursor lipid II ([Brotz et al., 1995; Brotz et al., 1997]).

MRSA = settings: ref Kruszewska et al., 2004; cited from earlier work
Source text: as §2

M. luteus ATCC4698 = format: cell-based, Micrococcus luteus; settings: CLSI recommendations; incubated aerobically with shaking 18–20 hr at 37°C; MIC = lowest concentration preventing visible growth; purified variants
Method: as §1

S. aureus R33 MRSA = format: cell-based, Staphylococcus aureus; settings: CLSI recommendations; incubated aerobically with shaking 18–20 hr at 37°C; MIC = lowest concentration preventing visible growth; purified variants
Method: as §1

S. aureus SH1000 = format: cell-based, Staphylococcus aureus; settings: CLSI recommendations; incubated aerobically with shaking 18–20 hr at 37°C; MIC = lowest concentration preventing visible growth; purified variants
Method: as §1

E. faecium ATCC19579 = format: cell-based; settings: CLSI recommendations; incubated aerobically with shaking 18–20 hr at 37°C; MIC = lowest concentration preventing visible growth; purified variants
Method: as §1

S. epidermidis NCTC11047 = format: cell-based; settings: CLSI recommendations; incubated aerobically with shaking 18–20 hr at 37°C; MIC = lowest concentration preventing visible growth; purified variants
Method: as §1

E. faecium 7131121 VRE = format: cell-based; settings: vancomycin-resistant clinical isolate; CLSI recommendations; 18–20 hr at 37°C; MIC = lowest concentration preventing visible growth
Method: as §1

E. faecalis ATCC29212 = format: cell-based; settings: CLSI recommendations; incubated aerobically with shaking 18–20 hr at 37°C; MIC = lowest concentration preventing visible growth; purified variants
Method: as §1

## Mersacidin [reference compound]
S. pneumoniae BAA-255
  MIC S. pneumoniae BAA-255: 2 µg/mL
[1]
  cure of abscesses in rats: cures
  cure of systemic MRSA infections in mice: cures
MRSA
  eradication of MRSA in a mouse rhinitis model: eradicates MRSA
M. luteus ATCC4698
  MIC M. luteus ATCC4698: 1 µg/mL and 2 µg/mL
S. aureus R33 MRSA
  MIC S. aureus R33 MRSA: 32 µg/mL
S. aureus SH1000
  MIC S. aureus SH1000: 32 µg/mL
E. faecium ATCC19579
  MIC E. faecium ATCC19579: 32 µg/mL
S. epidermidis NCTC11047
  MIC S. epidermidis NCTC11047: 16 µg/mL and 32 µg/mL
E. faecium 7131121 VRE
  MIC E. faecium 7131121 VRE: 64 µg/mL
E. faecalis ATCC29212
  MIC E. faecalis ATCC29212: 64 µg/mL
